Results as given in PMC9694488, “Amyloid beta and its naturally occurring N-terminal variants are potent activators of human and mouse formyl peptide receptor 1” (The Journal of Biological Chemistry, 2022).

Assays:
hFPR1 [1] = details: compared with this study; ref Le et al. and Slowik et al. (35, 42); cited from earlier work
mouse and human FPR1 = system: mouse and human FPR1; parameters: method as in Tiffany et al.; details: ref Tiffany et al.; cited from earlier work
mFpr1 = experiment: Ca2+ imaging, HEK293T transiently transfected with mFpr1; format: cell-based, mouse; details: for Ca2+ response, mFpr1: n = 3, N = 2
[2] = CD spectroscopy (secondary structure); format: physicochemical; details: 30 μM in C1, sonicated 10 min, n = 3, N = 1
Description: CD spectra were recorded (JASCO J-1500 spectrometer) in a 1 mm High Precision Cell (Hellma Analytics). Data were processed in Spectra Analysis by JASCO and were plotted by Origin.

hFPR2 = experiment: Ca2+ imaging, HEK293T transiently transfected with hFPR2; format: cell-based, human
Description: (§2) All peptides were thawed at room temperature approximately 1 h before each functional experiment, as this time was needed to prepare the compound plates for each measurement.
(§3) HEK293T cells (ATCC) were cultured in Dulbecco’s Modified Eagle’s medium (DMEM, Biowest) supplemented with 10% (v/v) heat-inactivated fetal calf serum (FCS, Pan Biotech), 1 unit/ml penicillin-streptomycin (Biowest), and 2 mM L-glutamine (Biowest) until 80% confluence. For transfection, approximately 2000 cells were seeded in each well of poly-D-lysine–coated (PDL) (10 μg/ml in PBS, Sigma) black optical 96-well μCLEAR-plates (Greiner Bio-One). Cells were transfected after 24 h using jetPEI (Polyplus-transfection SA) with 0.125 μg of DNA plasmids encoding the respective receptors and equal amounts of a plasmid encoding the G protein subunit Gα16 since this subunit is needed to trigger FPR-dependent calcium signals in HEK293 cells ([50], [70]). The medium of transfected cells was changed 24 h after transfection. For mock transfections, the proportion of the FPR-containing plasmids were substituted by an empty pcDNA3.1 vector.
(§4) Cell population responses of transfected HEK293T cells and U87 cells were recorded using a Flexstation III microplate reader (Molecular Devices). Briefly, cells were incubated with 2 μM Calbryte 520 AM (AAC Bioquest) for 2 h at room temperature in C1 assay buffer with 5 mM glucose (Carl Roth). Before each experiment, cells were rinsed three times with C1. Experiments with HEK293T cells were conducted 48 h after transfection, while experiments with U87 cells were performed 24 h after seeding. Acquisition of baseline fluorescence was performed for 25 s before ligand application, and cell population response was measured for 125 s after application.

hFPR1, hFPR2, hFPR3 = experiment: Ca2+ imaging, human FPRs taken together; format: cell-based; details: transfected HEK293T
ThT aggregation assay = format: physicochemical
Description: DMSO. ThT (Sigma-Aldrich) stock solutions were dissolved at 1 mM in the respective buffer, sterile filtered with […] pore membranes, and stored at −20 °C. […] Fluorescence measurements were carried out as 100 μl triplicates in black optical 384-well μCLEAR-plates (Greiner Bio-One) at 37 °C with excitation at 440 nm and emission at 484 nm in a FlexStation III microplate reader within 15 min after thawing of the peptides. Signals were measured in intervals of 60 s for 120 min and were shaken for 3 s before each read.

mFpr3 = experiment: Ca2+ imaging, HEK293T transiently transfected with mFpr3; format: cell-based, mouse; details: Aβ1-42 from P&E in C1 buffer; n = 3, N = 2
human and mouse FPRs = experiment: Ca2+ imaging, FPR-transfected HEK293T (several human and mouse FPRs taken together); format: cell-based
Description: as §2, §3, §4

monocytes and microglia = details: cited from earlier work
Text: Factors such as the secondary structure, 3D conformation, and aggregation therefore seem to be of high importance for the precise activation pattern, and different receptor subtypes seem to prefer different peptide structures or exposed surfaces. Multiple previous studies have already shown that different buffer systems and solvents can critically influence properties of Aβ such as its aggregation kinetics and the structure ...

hFPR3 = experiment: Ca2+ imaging, HEK293T transiently transfected with hFPR3
Description: as §2, §3, §4

[3] = Transmission electron microscopy of aggregates; format: physicochemical; details: 30 μM, 24 h incubation
Text: Samples were then stained with 4% uranyl acetate. Subsequently, TEM images were acquired (JEOL 1400 Transmission Electron Microscope) and then processed in ImageJ.

hFPR1 [4] = experiment: Ca2+ imaging, HEK293T transiently transfected with hFPR1; format: cell-based, human
mFpr2 = experiment: Ca2+ imaging, HEK293T transiently transfected with mFpr2; format: cell-based, mouse
Description: as §2, §3, §4

human and murine FPR2 = details: cell lines transfected with human and murine FPR2; cited from earlier work
Text: (§1) The activation of PRRs by Aβ has become a recent focus in AD research because they have a special ability to potently trigger the reactive state ([14], [25]). Among these PRRs, FPRs are one of the promising targets for AD research ([12]). They belong to a small gene family of G protein–coupled receptors with three members in humans and seven in mice ([26]). FPRs are primarily expressed in the innate and adaptive immune system, where they contribute to the detection and elimination of bacterial pathogens ([27], [28], [29], [30]). However, they are also expressed in a number of cell types in the ...

[5] = system: rat microglia and astrocytes; details: cited from earlier work
Text: as §1

[6] = system: primary murine glia and in vitro FPR expression systems; details: cited from earlier work
Text: as §1

[7] = system: neutrophils and murine glial cells; details: cited from earlier work
Text: as §1

[8] = Ca2+ imaging, transfected HEK293T + Gα16, Calbryte 520, C1 buffer pH 7.2, n = 3, N = 1
[9] = different suppliers, buffers, storage, solvents
[10] = Aβ1-42 from Synpeptide, 10 μM, n = 3, N = 2
[11] = 5 μM Aβ1-42 from P&E, n = 3, N = 1
[12] = Aβ1-42 from Sigma-Aldrich, 10 μM, n = 3, N = 2
[13] = 5 μM Aβ1-42 from P&E dissolved in DMSO vs C1, n = 3, N = 2
[14] = HFIP-treated Aβ1-42 from Anaspec, 10 μM, n = 3, N = 2

## Aβ1-42: Amyloid beta peptide, human WT sequence; from Peptides&Elephants, Anaspec (untreated or HFIP-treated), Sigma-Aldrich, Synpeptide
hFPR1 [1]
  hFPR1 response to Aβ1-42 in earlier studies: far less pronounced
Mouse and human FPR1
  activation of mouse and human FPR1 in an earlier study: failed to detect any activation of mouse and human FPR1
mFpr1; Aβ1-42 from P&E in C1 buffer, compared with the other FPRs
  Ca2+ response, mFpr1: even more sensitive and had a higher signal amplitude than any other receptor
mFpr1; [8]
  threshold for minimal detectable activation, mFpr1: 500 nM
mFpr1; HFIP-treated Aβ1-42 from Anaspec, 10 μM
  Ca2+ response, mFpr1: weakly activated hFPR3, mFpr1, and mFpr2
mFpr1; [9]
  mFpr1 activation over all suppliers, buffers and solvents: activated under almost all conditions
mFpr1; non-HFIP–treated Aβ1-42 from Anaspec, 10 μM
  Ca2+ response, mFpr1: potently activated mFpr1
[2]; Aβ1-42 from P&E
  β-turn proportion in comparison with the Anaspec peptides: significantly elevated β-turn proportions
[2]; Aβ1-42 from Synpeptide
  β-turn proportion in comparison with the Anaspec peptides: significantly elevated β-turn proportions
hFPR2; [10]
  Ca2+ response, hFPR2: the responses of hFPR1 and hFPR2 were lost
hFPR2; [8]
  threshold for minimal detectable activation, hFPR2: 3 µM
hFPR1, hFPR2, hFPR3
  response of hFPRs (in addition to hFPR2): all other hFPRs also responded
ThT aggregation assay; Aβ1-42 from P&E, 22.5 μM, in HBSS, 37 °C
  capability to form aggregates in HBSS: strong reduction in the capability to form aggregates
ThT aggregation assay; Aβ1-42 from Sigma-Aldrich, 22.5 μM in C1, 37 °C
  ThT fluorescence kinetics in the first 2 h: did not drastically change
ThT aggregation assay; Aβ1-42 from Synpeptide, 22.5 μM in C1, 37 °C
  ThT fluorescence kinetics in the first 2 h: did not drastically change
ThT aggregation assay; HFIP-treated Aβ1-42 from Anaspec (aggregation control), 22.5 μM, C1 with 0.2% DMSO, 37 °C
  ThT fluorescence kinetics in the first 2 h: showed the expected increase
ThT aggregation assay; non-HFIP–treated Aβ1-42 from Anaspec, 22.5 μM in C1, 37 °C
  ThT fluorescence kinetics in the first 2 h: showed a reduction of fluorescence
mFpr3
  Ca2+ response, mFpr3: did not respond
Human and mouse FPRs; 5 μM Aβ1-42 from P&E dissolved in HBSS, n = 3, N = 1
  FPR responses in HBSS: complete loss of nearly all FPR responses
Human and mouse FPRs; [11]
  FPR responses in C1 compared with HBSS and Tris–NaCl: most robust activation of human and mouse FPRs in C1
Human and mouse FPRs; 10 μM Aβ1-42 (Synpeptide), stored in C1 at -20 °C for 6 months vs freshly dissolved, n = 1, N = 2
  FPR response pattern after extended storage: Alterations of FPR responses
Human and mouse FPRs; [12]
  Ca2+ response pattern of mouse and human FPRs: elicited a similar response pattern as that of P&E
Human and mouse FPRs; non-HFIP–treated Aβ1-42 from Anaspec, 10 μM, n = 3, N = 2
  Ca2+ response, mouse and human FPRs other than mFpr1: failed to activate any other mouse or human FPR
Monocytes and microglia
  FPR-dependent signaling with progressing aggregation: lost FPR-dependent signaling with progressing aggregation
hFPR3; [13]
  increase of hFPR3 response by DMSO: 32%
hFPR3; [11]
  hFPR3 response in Tris–NaCl versus C1: did not significantly alter the responses of hFPR3
hFPR3; [8]
  threshold for minimal detectable activation, hFPR3: 3 µM
hFPR3; [14]
  Ca2+ response, hFPR3: weakly activated hFPR3, mFpr1, and mFpr2
hFPR3; [9]
  hFPR3 activation over all suppliers, buffers and solvents: activated under almost all conditions
[3]; Aβ1-42 from P&E
  TEM aggregate morphology: somewhat similar amorphous morphology
[3]; Aβ1-42 from Synpeptide
  TEM aggregate morphology: somewhat similar amorphous morphology
[3]; HFIP-treated Aβ1-42 from Anaspec
  TEM aggregate morphology: somewhat similar amorphous morphology
[3]; non-HFIP–treated Aβ1-42 from Anaspec
  TEM aggregate morphology: seemed to directly form long fibers
hFPR1 [4]; [13]
  decrease of hFPR1 response by DMSO: 40%
hFPR1 [4]; [11]
  reduction of signal amplitude, hFPR1, in Tris–NaCl versus C1: approximately 50%
hFPR1 [4]; Aβ1-42 from P&E in C1 buffer, n = 3, N = 2, compared with the other FPRs
  Ca2+ response, hFPR1: even more sensitive and had a higher signal amplitude than any other receptor
hFPR1 [4]; [12]
  Ca2+ response, hFPR1: failed to activate hFPR1
hFPR1 [4]; [10]
  Ca2+ response, hFPR1: the responses of hFPR1 and hFPR2 were lost
hFPR1 [4]; Ca2+ imaging, transfected HEK293T + Gα16, Calbryte 520, assay buffer C1 pH 7.2, peptide stock 30 μM in C1, n = 3, N = 1
  threshold for minimal detectable activation, hFPR1: 3 µM
mFpr2; [8]
  threshold for minimal detectable activation, mFpr2: 3 µM
mFpr2; [14]
  Ca2+ response, mFpr2: weakly activated hFPR3, mFpr1, and mFpr2
Human and murine FPR2
  calcium mobilization and ERK signaling: can induce calcium mobilization and ERK signaling
[5]
  cAMP and ERK phosphorylation in rat microglia and astrocytes: induced a decrease of cAMP and an induction of ERK phosphorylation
[6]
  intracellular uptake via FPRs: FPRs mediate the intracellular uptake of Aβ1-42
[7]
  FPR2-dependent pro-inflammatory effects: led to the induction of oxidative stress, the release of pro-inflammatory cytokines, and chemotaxis
